Test results reported in patent US10064826B2, “Direct compression and dry granulation processes for preparing carglumic acid tablets having less impurities than those produced by wet granulation process” (Navinta, LLC, priority 2013, dated 2018).

Assay: Stability under stress conditions (alkaline, acidic, light, oxidizing medium)
Format: physicochemical
Conditions: light or hydrogen peroxide
Protocol: Both batches of carglumic acid tablets from Examples 1 and 2 are also evaluated for stability under stress conditions.
Principal degradation products are hydantoin-5-propionic acid (“5-HPA”) and diaza-1,3-dione-2,4-carboxy-7-cycloheptane. Among them, 5-HPA is toxic and thus it must be controlled below 0.1%. L-Pyroglutamic acid is another common impurity in the carglumic acid tablet.

Degradation when exposed to light or an oxidizing medium: slowly degraded
Structure (SMILES): NC(=O)N[C@@H](CCC(=O)O)C(=O)O [Carglumic acid, (2S)-2-(carbamoylamino)pentanedioic acid]
